{"source": "patent US9085531B2", "about": "(priority 2004, dated 2015)", "key": {"[1]": {"system": "tetrabenazine-induced exploratory loss and ptosis in mice", "assay": "Tetrabenazine assay", "settings": "mouse, in vivo"}}, "note": "Counter-ions that a name gives are not always drawn.", "data": [{"smiles": "CN1Cc2ccccc2C(C2=Cc3ccccc3CCC2)C1", "note": "(stereo not shown) (as salt: maleate)", "values": [{"measurement": "melting point", "value": "178 to 180", "unit": "°C"}]}, {"smiles": "CN1Cc2cc(-c3cccnn3)ccc2C(c2cc3ccccc3s2)C1", "note": "(stereo not shown) (as salt: maleate)", "values": [{"measurement": "melting point", "value": "100 to 104", "unit": "°C"}]}, {"smiles": "CN1Cc2c(N)cccc2C(c2ccccc2)C1", "note": "(stereo not shown) [Nomifensine]", "values": [{"measurement": "activity in the tetrabenazine assay", "setting": "[1]", "value": "potent biological activity"}]}, {"smiles": "COC(=O)C(c1ccccc1)C1CCCCN1.Cl", "note": "(stereo not shown) [Ritalin®]", "values": [{"measurement": "activity in the tetrabenazine assay", "setting": "[1]", "value": "potent activity"}]}]}
